Source: patent US11926614B2, “1,2,4-triazole derivatives as tankyrase inhibitors” (priority 2018, dated 2024)
Read-outs that look alike come from different tables or passages of the source.

What was measured:
[1] = biological target: TNKS2 (Homo sapiens (Human), UniProt Q9H2K2); experiment: Biochemical IC50 TNKS2
From the text: (§1) XLfit (idbs) was used to determine the IC50-values in inhibition experiments. The following formula was chosen to fit the data points (Langmuir Binding Isotherm): fit=((A+(B*x))+4(C−B)*(1−exp((−1*D)*x)))/D)), res=(y−fit)

[2] = system: HEK293; experiment: Cellular IC50 HEK293; type: cell-based
From the text: as §1

[3] = read-out: Biochemical IC50 TNKS2
[4] = Homo sapiens, HEK293, HEK293; read-out: Cellular IC50 HEK293
[5] = Homo sapiens, HEK293; read-out: Cellular IC50 HEK293
[6] = Homo sapiens, HEK293, read-out: Cellular IC50 HEK293

TNKS2, sequence (Q9H2K2 whole entry): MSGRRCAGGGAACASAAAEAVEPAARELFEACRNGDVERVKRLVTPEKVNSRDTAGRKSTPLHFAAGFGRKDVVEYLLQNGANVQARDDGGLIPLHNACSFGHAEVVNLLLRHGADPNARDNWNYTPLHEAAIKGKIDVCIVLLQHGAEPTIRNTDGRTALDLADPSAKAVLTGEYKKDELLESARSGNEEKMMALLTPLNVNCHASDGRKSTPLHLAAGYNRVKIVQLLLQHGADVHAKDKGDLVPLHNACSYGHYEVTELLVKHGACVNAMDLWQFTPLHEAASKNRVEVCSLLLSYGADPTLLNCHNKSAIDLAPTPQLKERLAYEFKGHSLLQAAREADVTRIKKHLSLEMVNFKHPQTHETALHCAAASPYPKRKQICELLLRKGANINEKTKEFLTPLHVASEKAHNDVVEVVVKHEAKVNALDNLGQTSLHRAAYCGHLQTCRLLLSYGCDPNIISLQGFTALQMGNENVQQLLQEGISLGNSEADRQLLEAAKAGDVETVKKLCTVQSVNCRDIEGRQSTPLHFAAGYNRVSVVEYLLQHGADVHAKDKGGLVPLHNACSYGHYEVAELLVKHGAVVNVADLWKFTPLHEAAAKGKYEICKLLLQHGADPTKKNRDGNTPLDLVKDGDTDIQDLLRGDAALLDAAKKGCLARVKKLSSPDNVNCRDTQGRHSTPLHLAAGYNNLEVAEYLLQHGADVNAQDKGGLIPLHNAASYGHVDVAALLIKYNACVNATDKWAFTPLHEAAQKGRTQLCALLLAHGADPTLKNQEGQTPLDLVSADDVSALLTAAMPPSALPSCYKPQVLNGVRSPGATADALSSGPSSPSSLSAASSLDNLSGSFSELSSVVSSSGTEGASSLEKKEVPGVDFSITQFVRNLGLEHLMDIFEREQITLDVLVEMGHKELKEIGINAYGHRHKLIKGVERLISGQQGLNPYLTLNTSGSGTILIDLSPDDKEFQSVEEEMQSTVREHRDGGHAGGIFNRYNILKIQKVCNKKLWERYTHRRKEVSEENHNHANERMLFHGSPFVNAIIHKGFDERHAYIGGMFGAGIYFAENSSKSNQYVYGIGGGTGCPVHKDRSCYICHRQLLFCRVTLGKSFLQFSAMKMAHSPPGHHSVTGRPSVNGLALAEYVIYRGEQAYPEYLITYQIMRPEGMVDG

Row | Structure (SMILES) | IC50 [1, 3] [nM] | IC50 [2, 4] [nM] | IC50 [1] [nM] | IC50 [2, 5] [nM] | IC50 [2, 6] [nM]
1 | O=C(N[C@H]1C[C@H](c2nnc(-c3ccncn3)n2-c2ccccc2Cl)C1)c1ccc(F)cn1 [Example 17, N-((1S,3r)-3-(4-(2-chlorophenyl)-5-(pyrimidin-4-yl)-4H-1,2,4-triazol-3-yl)cyclobutyl)-5-fluoropicolinamide] | 2.7 | 2.4 |  |  | 
2 | [2H]C([2H])([2H])C([2H])([2H])Oc1ccc(-c2nnc([C@H]3C[C@H](NC(=O)c4ccnc5cc(F)cnc45)C3)n2-c2ccccc2F)nc1 [Example 94, N-((1S,3r)-3-(5-(5-(ethoxy-d5)pyridin-2-yl)-4-(2-fluorophenyl)-4H-1,2,4-triazol-3-yl)cyclobutyl)-7-fluoro-1,5-naphthyridine-4-carboxamide] |  |  | 2.7 | 0.45 | 
3 | CCOc1ccc(-c2nnc(C34CC(NC(=O)c5ccnc6cccnc56)(C3)C4)n2-c2ccccc2F)nc1 [Example 62, N-(3-(5-(5-ethoxypyridin-2-yl)-4-(2-fluorophenyl)-4H-1,2,4-triazol-3-yl)bicyclo[1.1.1]pentan-1-yl)-1,5-naphthyridine-4-carboxamide] | 1.3 | 2.1 |  |  | 
4 | O=C(N[C@H]1C[C@H](c2nnc(-c3nccs3)n2-c2ccccn2)C1)c1ccnc2cc(F)cnc12 [Example 39, 7-fluoro-N-((1r,3r)-3-(4-(pyridin-2-yl)-5-(thiazol-2-yl)-4H-1,2,4-triazol-3-yl)cyclobutyl)-1,5-naphthyridine-4-carboxamide] | 28 | 16 |  |  | 
5 | Cc1cccc(-c2nnc([C@H]3C[C@H](NC(=O)c4cc(F)cc5nccnc45)C3)n2-c2ccccc2F)n1 [Example 202, 7-fluoro-N-((1S,3r)-3-(4-(2-fluorophenyl)-5-(6-methylpyridin-2-yl)-4H-1,2,4-triazol-3-yl)cyclobutyl)quinoxaline-5-carboxamide] | 1.6 |  |  |  | 0.169
6 | O=C(N[C@H]1C[C@H](c2nnc(-c3ccncn3)n2-c2ccccc2Cl)C1)c1ccc(F)cc1 [Example 15, N-((1S,3r)-3-(4-(2-chlorophenyl)-5-(pyrimidin-4-yl)-4H-1,2,4-triazol-3-yl)cyclobutyl)-4-fluorobenzamide] | 4.1 | 30 |  |  | 
7 | O=C(N[C@H]1C[C@H](c2nnc(-c3ccncn3)n2-c2ccccc2Cl)C1)c1ccncn1 [Example 11, N-((1S,3r)-3-(4-(2-chlorophenyl)-5-(pyrimidin-4-yl)-4H-1,2,4-triazol-3-yl)cyclobutyl)pyrimidine-4-carboxamide] | 3.5 | 4 |  |  | 
8 | O=C(N[C@H]1C[C@H](c2nnc(-c3ccncn3)n2-c2ccccc2Cl)C1)c1ccnc2cccnc12 [Example 5, N-((1S,3r)-3-(4-(2-chlorophenyl)-5-(pyrimidin-4-yl)-4H-1,2,4-triazol-3-yl)cyclobutyl)-1,5-naphthyridine-4-carboxamide] | 0.85 |  |  | 1 | 
9 | CCOc1ccc(-c2nnc([C@H]3C[C@H](NC(=O)c4ncccc4C)C3)n2-c2ccccc2F)nc1 [Example 102, N-((1S,3r)-3-(5-(5-ethoxypyridin-2-yl)-4-(2-fluorophenyl)-4H-1,2,4-triazol-3-yl)cyclobutyl)-3-methylpicolinamide] | 190 | 919 |  |  | 
10 | CCOc1ccc(-c2nnc([C@H]3C[C@H](NC(=O)c4cccc(C#N)n4)C3)n2-c2ccccc2F)nc1 [Example 53, 6-cyano-N-((1S,3r)-3-(5-(5-ethoxypyridin-2-yl)-4-(2-fluorophenyl)-4H-1,2,4-triazol-3-yl)cyclobutyl)picolinamide] | 3.7 | 13 |  |  | 
11 | O=C(N[C@H]1C[C@H](c2nnc(-c3ccc(OC(F)F)cn3)n2-c2ccccc2F)C1)c1cc(F)cc2nccnc12 [Example 186, N-((1S,3r)-3-(5-(5-(difluoromethoxy)pyridin-2-yl)-4-(2-fluorophenyl)-4H-1,2,4-triazol-3-yl)cyclobutyl)-7-fluoroquinoxaline-5-carboxamide] | 2.4 |  |  |  | 0.508
12 | O=C(N[C@H]1C[C@H](c2nnc(-c3ccncn3)n2-c2ccccc2Cl)C1)c1ccccn1 [Example 10, N-((1S,3r)-3-(4-(2-chlorophenyl)-5-(pyrimidin-4-yl)-4H-1,2,4-triazol-3-yl)cyclobutyl)picolinamide] | 1.5 |  |  | 0.2 | 
13 | O=C(NC12CC(c3nnc(-c4ccncn4)n3-c3ccccc3Cl)(C1)C2)c1ccccc1 [Example 23, N-(3-(4-(2-chlorophenyl)-5-(pyrimidin-4-yl)-4H-1,2,4-triazol-3-yl)bicyclo[1.1.1]pentan-1-yl)benzamide] | 3.8 | 100 |  |  | 
14 | O=C(N[C@H]1C[C@H](c2nnc(-c3ccc(OC4CC4)cn3)n2-c2ccccc2F)C1)c1ccccn1 [Example 106, N-((1S,3r)-3-(5-(5-cyclopropoxypyridin-2-yl)-4-(2-fluorophenyl)-4H-1,2,4-triazol-3-yl)cyclobutyl)picolinamide] | 8.6 |  |  |  | 49
15 | CCOc1ccc(-c2nnc([C@H]3C[C@H](NC(=O)c4ccc5cccnc5n4)C3)n2-c2ccccc2F)nc1 [Example 147, N-((1S,3r)-3-(5-(5-ethoxypyridin-2-yl)-4-(2-fluorophenyl)-4H-1,2,4-triazol-3-yl)cyclobutyl)-1,8-naphthyridine-2-carboxamide] | 19 | 78 |  |  | 
16 | CCOc1ccc(-c2nnc([C@H]3C[C@H](NC(=O)c4cn5ccccc5n4)C3)n2-c2ccccc2F)nc1 [Example 118, N-((1S,3r)-3-(5-(5-ethoxypyridin-2-yl)-4-(2-fluorophenyl)-4H-1,2,4-triazol-3-yl)cyclobutyl)imidazo[1,2-a]pyridine-2-carboxamide] | 12 | 100 |  |  | 
17 | CCOc1ccc(-c2nnc([C@H]3C[C@H](NC(=O)c4ccc5ncccc5n4)C3)n2-c2cccnc2)nc1 [Example 163, N-((1r,3r)-3-(5-(5-ethoxypyridin-2-yl)-4-(pyridin-3-yl)-4H-1,2,4-triazol-3-yl)cyclobutyl)-1,5-naphthyridine-2-carboxamide] | 14 | 71 |  |  | 
18 | CCOc1ccc(-c2nnc([C@H]3C[C@H](NC(=O)c4cccc5cccnc45)C3)n2-c2ccc(C)s2)nc1 [Example 83, N-((1r,3r)-3-(5-(5-ethoxypyridin-2-yl)-4-(5-methylthiophen-2-yl)-4H-1,2,4-triazol-3-yl)cyclobutyl)quinoline-8-carboxamide] | 2.4 |  |  |  | 1
19 | [2H]C([2H])([2H])C([2H])([2H])Oc1ccc(-c2nnc([C@H]3C[C@H](NC(=O)c4cccc5cccnc45)C3)n2-c2ccccc2F)nc1 [Example 95, N-((1S,3r)-3-(5-(5-(ethoxy-d5)pyridin-2-yl)-4-(2-fluorophenyl)-4H-1,2,4-triazol-3-yl)cyclobutyl)quinoline-8-carboxamide] |  | 0.48 | 3.5 |  | 
20 | O=C(N[C@H]1C[C@H](c2nnc(-c3nccs3)n2-c2ccccc2)C1)c1ccccc1 [Example 34, N-((1r,3r)-3-(4-phenyl-5-(thiazol-2-yl)-4H-1,2,4-triazol-3-yl)cyclobutyl)benzamide] | 290 | 921 |  |  | 
21 | CCOc1ccc(-c2nnc([C@H]3C[C@H](NC(=O)c4ccnc5cccnc45)C3)n2-c2ccc(C)s2)nc1 [Example 82, N-((1r,3r)-3-(5-(5-ethoxypyridin-2-yl)-4-(5-methylthiophen-2-yl)-4H-1,2,4-triazol-3-yl)cyclobutyl)-1,5-naphthyridine-4-carboxamide] | 0.73 |  |  |  | 0.81
22 | CCOc1ccc(-c2nnc([C@H]3C[C@H](NC(=O)c4ccccn4)C3)n2-c2ccccc2)nc1 [Example 68, N-((1r,3r)-3-(5-(5-ethoxypyridin-2-yl)-4-phenyl-4H-1,2,4-triazol-3-yl)cyclobutyl)picolinamide] | 5.2 |  |  |  | 65
23 | CCOc1ccc(-c2nnc([C@H]3C[C@H](NC(=O)c4ccc5ncccc5n4)C3)n2-c2ccncc2)nc1 [Example 169, N-((1r,3r)-3-(5-(5-ethoxypyridin-2-yl)-4-(pyridin-4-yl)-4H-1,2,4-triazol-3-yl)cyclobutyl)-1,5-naphthyridine-2-carboxamide] | 28 | 58 |  |  | 
24 | CCOc1ccc(-c2nnc([C@H]3C[C@H](NC(=O)c4nn(C)c5ccccc45)C3)n2-c2ccccc2F)nc1 [Example 153, N-((1S,3r)-3-(5-(5-ethoxypyridin-2-yl)-4-(2-fluorophenyl)-4H-1,2,4-triazol-3-yl)cyclobutyl)-1-methyl-1H-indazole-3-carboxamide] | 13 | 56 |  |  | 
25 | CCOc1ccc(-c2nnc([C@H]3C[C@H](NC(=O)c4ccnc5cccnc45)C3)n2-c2ccccn2)nc1 [Example 124, N-((1r,3r)-3-(5-(5-ethoxypridin-2-yl)-4-(pyridin-2-yl)-4H-1,2,4-triazol-3-yl)cyclobutyl)-1,5-naphthyridine-4-carboxamide] | 5.8 |  |  |  | 36
26 | O=C(N[C@H]1C[C@H](c2nnc(-c3nccs3)n2-c2ccccc2Cl)C1)c1ccnc2cccnc12 [Example 41, N-((1S,3r)-3-(4-(2-chlorophenyl)-5-(thiazol-2-yl)-4H-1,2,4-triazol-3-yl)cyclobutyl)-1,5-naphthyridine-4-carboxamide] | 2 | 0.65 |  |  | 
27 | O=C(N[C@H]1C[C@H](c2nnc(-c3ccccn3)n2-c2ccccc2F)C1)c1cccc2nccnc12 [Example 193, N-((1S,3r)-3-(4-(2-fluorophenyl)-5-(pyridin-2-yl)-4H-1,2,4-triazol-3-yl)cyclobutyl)quinoxaline-5-carboxamide] | 1.6 |  |  |  | 0.286
28 | CCOc1ccc(-c2nnc([C@H]3C[C@H](NC(=O)c4ccnc5cc(F)cnc45)C3)n2-c2cccnc2)nc1 [Example 164, N-((1r,3r)-3-(5-(5-ethoxypyridin-2-yl)-4-(pyridin-3-yl)-4H-1,2,4-triazol-3-yl)cyclobutyl)-7-fluoro-1,5-naphthyridine-4-carboxamide] | 5.8 |  |  |  | 9
